Experimental data taken from patent US5216156A, “Non-migrating 1-hydrocarbyloxy-2,2,6,6-tetramethylpiperidine 1,3,5-triazine derivatives” (Ciba-Geigy Corporation, priority 1992, dated 1993).

What was measured:
[1] = Extraction of stabilizer from high solids thermoset acrylic enamel film by refluxing toluene, GC (Example 78); details: refluxing toluene one hour; for Percent Stabilizer Extracted: 1% by weight on resin solids, baked 30 minutes at 121° C., stored one week, GC; for extraction of stabilizer from the stabilized enamel: in words, thermoset acrylic enamel
Text: A model high solids thermoset acrylic enamel based on a binder of 60% of a polymer comprising monomers such as 2-hydroxyethyl acrylate, butyl acrylate, butyl methacrylate, styrene and acrylic acid, and 40% of a melamine resin with an acid catalyst such as p-toluenesulfonic acid is formulated and stabilized with 1% by weight, based on resin solids, of a variety of hindered amine stabilizers.
This enamel is spray applied to a thickness of 1.8-2.0 mils (0.0457-0.0508 mm) onto glass plates and baked for 30 minutes at 250° F. (121° C.). After storage for one week in an air-conditioned room, the films are removed from the glass plates and placed in a round-bottomedflask and extracted with refluxing toluene for one hour. After one hour, the films are removed and the toluene extract is analyzed for extracted stabilizer by gas chromatography.

[2] = Extraction of stabilizer from polyester polyurethane refinish enamel film by refluxing toluene, GC (Example 75); details: 2% by weight on resin solids, film baked 30 minutes at 60° C., stored one month, refluxing toluene one hour
Method: A polyester polyurethane refinish enamel is prepared from a polyester resin (DESMOPHEN® 670A-80, Mobay) and a polyurethane resin (DESMODUR® N-75, Mobay) in a ratio of 1.0:1.1 equivalents, with 1% DABCO® T-12 […] as catalyst. The enamel is stabilized with 2% by weight, based on resin solids, of various hindered amine stabilizers. The stabilized enamel is spray applied to a thickness of 1.8-2.0 mils (0.0457-0.0508 mm) onto glass plates and baked for 30 minutes at 140° F. (60° C.). After storage for one month in an air-conditioned room, the films are removed from the glass plates and placed in a round-bottomed flask and then extracted with refluxing toluene for one hour. The films are then removed and the toluene is analyzed for any stabilizer extracted by gas chromatography.
If the stabilizer is chemically bonded to the polymer film, little if any of the stabilizer is extracted by the refluxing toluene.

[3] = Hindered amine basicity (pKa); format: physicochemical; details: Table 1; N-substituted derivatives of 4-hydroxy-2,2,6,6-tetramethylpiperidine
Text: There are clear advantages in using the hindered amine compounds having 1-hydrocarbyloxy substitution. In certain polymer systems, there is a definite advantage in using a less basic stabilizer. For example, the cure of acid-catalyzed thermoset melamine crosslinked automotive coatings systems can be severely retarded by an interaction between the acid catalyst and a basic hindered amine stabilizer.

SMILES	Percent Stabilizer Extracted [1] [%]	extraction of stabilizer from the stabilized enamel [1]	Percent Stabilizer Extracted [2] [%]	pKa [3]
CCCCN(c1nc(NCCO)nc(N(CCCC)C2CC(C)(C)N(OC3CCCCC3)C(C)(C)C2)n1)C1CC(C)(C)N(OC2CCCCC2)C(C)(C)C1 [Example 1, 2-[(2-Hydroxyethyl)amino]-4,6-bis[N-(1-cyclohexyloxy-2,2,6,6-tetramethylpiperidin-4-yl)-butylamino]-1,3,5-triazine]	0	resist extraction from the stabilized enamel	0	
CCCCCCCCON1C(C)(C)CC(N(CCCC)c2nc(NCCO)nc(N(CCCC)C3CC(C)(C)N(OCCCCCCCC)C(C)(C)C3)n2)CC1(C)C [Example 2, 2-[(2-Hydroxyethyl)amino]-4,6-bis[N-(1-octyloxy-2,2,6,6-tetramethylpiperidin-4-yl)butylamino]-1,3,5-triazine]	0	resist extraction from the stabilized enamel	0	
CCCCN(c1nc(NCCCCCC(=O)O)nc(N(CCCC)C2CC(C)(C)N(OC3CCCCC3)C(C)(C)C2)n1)C1CC(C)(C)N(OC2CCCCC2)C(C)(C)C1 [Example 15, N-{4,6-Bis[(1-cyclohexyloxy-2,2,6,6-tetramethylpiperidin-4-yl)butylamino]-1,3,5-triazin-2-yl}-6-aminohexanoic acid]			23	
CCCCCCCCON1C(C)(C)CC(N(CCCC)c2nc(NCCCCCC(=O)O)nc(N(CCCC)C3CC(C)(C)N(OCCCCCCCC)C(C)(C)C3)n2)CC1(C)C [Example 16, N-{4,6-Bis[(1-octyloxy-2,2,6,6-tetramethylpiperidin-4-yl)butylamino]-1,3,5-triazin-2-yl}-6-aminohexanoic acid]			21	
CCCCCCCCON1C(C)(C)CC(OC(=O)CCCCCCCCC(=O)OC2CC(C)(C)N(OCCCCCCCC)C(C)(C)C2)CC1(C)C [HA 1, bis(1-octyloxy-2,2,6,6-tetramethylpiperidin-4-yl) sebacate, reference compound]	100		100	
CC1(C)CC(O)CC(C)(C)N1 [N--H, 4-hydroxy-2,2,6,6-tetramethylpiperidine]				10.0
CN1C(C)(C)CC(O)CC1(C)C [N--Me]				10.0
CON1C(C)(C)CC(O)CC1(C)C [N--OMe]				4.8
